Here are results for two compounds from US5137872A, “Growth hormone-releasing factor analogs” (Pitman-Moore, Inc., priority 1989, dated 1992).

The subject of this experiment is serum ovine somatotropin (oST). The experiment can be described thus: Serum ovine somatotropin (oST) by RIA after subcutaneous injection of GRF compounds in lambs. Format: in vivo. The protocol:
Whether lambs (40-45 kg) were injected subcutaneously with the following GRF compounds in a phosphate buffered saline vehicle (pH 7):
10.0 ug/kg recombinant native hGRF (rhGRF)
5.0 ug/kg synthetic native hGRF (shGRF)
5.0 ug/kg [Pro^0, Gly^15, Met^27 ]-hGRF(1-44)-NH2 (aGRF)
There were 4 animals per treatment group and each treatment was repeated 3 times to give a total of 12 samples/time point/treatment. The animals were bled at time 0, 10, 20, 30, 60 and 120 minutes after injection and analyzed for serum ovine somatotropin (oST) by radioimmunoassay (RIA).
Example 4 was repeated using the following treatments:
20.0 ug/kg recombinant native hGRF (rhGRF)
10.0 ug/kg synthetic native hGRF (shGRF)

[1] abbreviates: 5.0 ug/kg subcutaneous, FIG. 1 (Example 4).
Where [2] appears, read: 10.0 ug/kg subcutaneous, FIG. 2 (Example 5).

For `CC[C@H](C)[C@H](NC(=O)[C@H](C)NC(=O)[C@H](CC(=O)O)NC(=O)[C@H](C)NC(=O)[C@@H](N)Cc1ccc(O)cc1)C(=O)N[C@@H](Cc1ccccc1)C(=O)N[C@H](C(=O)N[C@@H](CC(N)=O)C(=O)N[C@@H](CO)C(=O)N[C@@H](Cc1ccc(O)cc1)C(=O)N[C@@H](CCCNC(=N)N)C(=O)N[C@@H](CCCCN)C(=O)N[C@H](C(=O)N[C@@H](CC(C)C)C(=O)NCC(=O)N[C@@H](CCC(N)=O)C(=O)N[C@@H](CC(C)C)C(=O)N[C@@H](CO)C(=O)N[C@@H](C)C(=O)N[C@@H](CCCNC(=N)N)C(=O)N[C@@H](CCCCN)C(=O)N[C@@H](CC(C)C)C(=O)N[C@@H](CC(C)C)C(=O)N[C@@H](CCC(N)=O)C(=O)N[C@@H](CC(=O)O)C(=O)N[C@H](C(=O)N[C@@H](CCSC)C(=O)N[C@@H](CO)C(=O)N[C@@H](CCCNC(=N)N)C(=O)N[C@@H](CCC(N)=O)C(=O)N[C@@H](CCC(N)=O)C(=O)NCC(=O)N[C@@H](CCC(=O)O)C(=O)N[C@@H](CO)C(=O)N[C@@H](CC(N)=O)C(=O)N[C@@H](CCC(N)=O)C(=O)N[C@@H](CCC(=O)O)C(=O)N[C@@H](CCCNC(=N)N)C(=O)NCC(=O)N[C@@H](C)C(=O)N[C@@H](CCCNC(=N)N)C(=O)N[C@@H](C)C(=O)N[C@@H](CCCNC(=N)N)C(=O)N[C@@H](CC(C)C)C(N)=O)[C@@H](C)CC)C(C)C)[C@@H](C)O` [native synthetic hGRF, reference compound], the “serum oST concentration at 120 minutes post injection versus time 0” value was “returned to baseline serum oST levels” under setting [1] and “returned to baseline serum oST levels” under setting [2].
For the compound [Pro^0, Gly^15, Met^27 ]-hGRF(1-44)-NH2, under setting [1], the “serum oST concentration at 120 minutes post injection versus time 0” value is listed as “oST concentrations greater than those at time 0” and the “duration of in vivo biological activity” value is given as “prolonged in vivo biological activity”. Further, under setting [2], the “serum oST concentration at 120 minutes post injection versus time 0” value was “oST concentrations greater than those at time 0” and the “duration of in vivo bioactivity compared to native GRF” value is given as “prolonged in vivo bioactivity”.
